# Test results taken from patent US20260137696A1, “Compositions Comprising an Inhibitor of Galectin-3” (University of Liverpool, priority 2023, published 2026).
# Key:
# SW620^Gal3+ cells = assay: Tumour growth and metastasis in chick chorioallantoic membrane (CAM) model; assay type: in vivo, chicken embryos
# Procedure: (§1) Effect of the compound of Formula I on tumour formation, growth and metastasis of SW620Gal3+ and SW620Gal3− cells was assessed in the chick chorioallantoic membrane (CAM) model. Galectin-3-expressing SW620^Gal3+ and Galectin-3-suppressed SW620^Gal3− cells were transfected with pHIV-Luc-ZsGreen vector and engrafted to the CAM on embryonic day 7. The compound of Formula I (24 μM) was injected into the allantoic cavity on the following day and the tumour formation and growth was analysed by fluorescence microscopy (FIG. 10A) and IVIS imaging (FIGS. 10B-FIG. 10D) on embryonic day 14. Seventy percent eggs grafted with Galectin-3-expressing SW620^Gal3+ cells formed various sized tumours in the absence of Formula I while the number of eggs formed in the Formula I treated group was reduced to 30%.
# as §1, with “SW620Gal3−” for “SW620Gal3− cells”, “SW620^Ga13−” for “SW620^Gal3−”
# (§2) Fertilised white leghorn chicken eggs were obtained from Lees Lane Poultry (Wirral, UK). The eggs were windowed on embryonic Day 3 with 4 ml albumin removed. The eggs were incubated at 37° C. in 35-40% humidity until embryonic day 7. ZsGreen- and luciferase-expressing SW620Gal3+ and SW620Gal3− cells (2.5×10^6) were then embedded on the chorioallantoic membrane (CAM). On embryonic Days 8 and 11, the inhibitors (24 μM) or control DMSO/PBS were injected into the allantoic cavity. The eggs were incubated until embryonic Day 14 The eggs were imaged using a Microscope as well as by IVIS. The embryos were then immediately decapitated. Organs were examined under fluorescence microscope for presence of ZsGreen-labelled tumour cells. Ethical approval for the experiments using chick embryos up to embryonic Day 14 was obtained from the Liverpool Animal Welfare and Ethical Review Body.
# SW620^Gal3− cells = assay: as above; assay type: in vivo, chicken embryos; conditions: 24 μM; Galectin-3-suppressed SW620^Gal3−
# Procedure: as §1
# as §1, with “SW620Gal3−” for “SW620Gal3− cells”, “SW620^Ga13−” for “SW620^Gal3−”
# as §2
structure (smiles),measurement,setting,value
C[C@H]1COc2c(N3CCN(C)CC3)c(F)cc3c(=O)c(C(=O)NNc4ccc(N)cc4)cn1c23 [Formula I],number of eggs that formed tumours,"SW620^Gal3+ cells; 24 μM into allantoic cavity, embryonic day 14, 70% without Formula I",30%
same,reduction of luminescence intensity in the tumours,"SW620^Gal3+ cells; 24 μM, IVIS imaging, embryonic day 14, vs group without Formula I",66%
same,tumours showing metastasis to other organs,"SW620^Gal3+ cells; 24 μM, 25% in the absence of Formula I",none
same,tumour formation or growth,SW620^Gal3− cells,no effect
